Source: paper PMC8834506, “Optimization of Thymidine Kinase-Based Safety Switch for Neural Cell Therapy” (Cells, 2022)
Where two headings read alike, the source gives them in different places.

Tests used:
[1] = system: hESC (HS420) expressing Ki67-30-GMK; test: ATP-based cell survival assay, GCV-induced cell death; settings: Homo sapiens, 96 h, read-out: EC50 of GCV (cell survival)
Method: (§1) Our first generation of suicide gene was engineered with the wild type thymidine kinase (wt-TK). To improve the suicide gene efficacy, we investigated different TK variants; wt-TK, 30-GMK, SR39, SR39h, and SR39h D116E variants. These sequences were chosen based on the analysis of the literature investigating HSV1-TK variants, as well as a gain of function mutation in the CMV UL-97 kinase. The efficacy of each variants was determined as percentage of cell survival following prodrug treatment compared to non-treated hESC. For this purpose, we used the ATP-based assay, which measures cellular ATP content and thereby provides a reliable estimate of the number of healthy cells. […]
(§2) Figure 1 EC50 of ganciclovir (GCV) in cell expressing different thymidine kinase (TK) variants. […] Number of surviving cells was monitored using bioluminescent ATP-based assay. […]
(§3) Cell culture plate (96 wells plate Corning #3907, Corning, Lonay, Switzerland) were pre-coated with 60 μL per well of Poly-L-ornithine solution (Sigma, Merk, Eysins, Switzerland) at 37 °C for 30 min. […] For EC50 assays, the medium was changed daily for 4 days, then cell viability was assessed using an ATP-based assay. EC50 values for each construct were calculated using a four parameters equation (GraphPad, Prism8, San Diego, CA, USA). […]

[2] = system: hESC (HS420) expressing Ki67-wt-TK; test: as above; settings: Homo sapiens; 96 h GCV exposure; wt-TK under Ki67 promoter
Method: as §1, §2, §3

[3] = system: hESC (HS420) expressing Ki67-SR39h D116E; test: as above; settings: Homo sapiens
Method: Our first generation of suicide gene was engineered with the wild type thymidine kinase (wt-TK). To improve the suicide gene efficacy, we investigated different TK variants; wt-TK, 30-GMK, SR39, SR39h, and SR39h D116E variants. These sequences were chosen based on the analysis of the literature investigating HSV1-TK variants, as well as a gain of function mutation in the CMV UL-97 kinase. The efficacy of each variants was determined as percentage of cell survival following prodrug treatment compared to non-treated hESC. For this purpose, we used the ATP-based assay, which measures cellular ATP content and thereby provides a reliable estimate of the number of healthy cells. The 50% effective concentration (EC50) was defined as the drug concentration required to reduce the percentage of cell survival by 50%. […] In order to optimize our system, we first replaced the wt-TK by the 30-GMK variant, which is a fusion between the 30 TK variant and guanylate kinase (GMK). Note that GMK is mediating the second phosphorylation step of antiviral nucleoside analogs. […] Microbial codon usage might not yield optimal results in human cells. We therefore adapted the SR39 sequence to a typical human codon usage. […]
as §2

[4] = type: in vivo, NOD/SCID mice; settings: 40 mg/kg/day i.p.; weighed daily during treatment
Method: Given the encouraging in vitro results, we next investigated whether this newly developed safety switch system (SR39h and different nucleoside analogs) could prevent tumor formation in vivo. For this purpose, 20,000 undifferentiated Ki67-SR39h-expressing hESC were transplanted into the striatum of NOD/SCID mice. […] A group of control mice received only a NaCl solution. […] Human cytoplasmic marker (HCM) staining confirmed the human (i.e., hESC-derived) origin of these tumors. Tumors cells were predominantly Ki67 positive with a rosette organization as frequently found in tumors of the central nervous system.
Supplementary Figure S3: Mice weight
Mice were weighed daily during guanosine analogs treatment to identify differences in weight gain/loss between treated groups. No differences were observed between treatment groups.
Supplementary Figure S4: in vivo validation of suicide gene. Coronal section of NOD/SCID mice 47 days after injection of hESC expressing the SR39h thymidine kinase variant. Mice were treated for 2x5 days with the respective nucleoside analogs (see Methods). Upper lane: ACV; middle lane: PCV; lower lane: GCV. Sections were colored with cresyl violet and dark purple staining reflects a high density of nuclei. Scale bar 1000 µm. […]

## Nc1nc(O)c2ncn(COC(CO)CO)c2n1 [GCV, ganciclovir]
[1]
  EC50: 110 nM
[2]
  EC50: 96 nM
[3]; 96 h, read-out: GCV EC50 in M
  EC50: 0.56 nM
[3]; 96 h GCV exposure, SR39h D116E variant, read-out: EC50 of GCV (cell survival)
  EC50: 0.6 nM
[4]
  Differences in weight among groups: no significant differences in weight
